Data taken from paper PMC3849266, “In Vitro and In Vivo Evaluation of a ^18F-Labeled High Affinity NOTA Conjugated Bombesin Antagonist as a PET Ligand for GRPR-Targeted Tumor Imaging” (PLoS ONE, 2013).
Entries after “also recorded” stand apart in the source; their conditions may differ. Like-named read-outs stand apart in the source and are kept apart here.

Key:
[1] = Labeling stability in murine serum (SDS-PAGE); type: in vitro ADME; conditions: 37 °C, 1 h
Description: The labeling stability was evaluated using SDS-PAGE analysis (200 V constant) on NuPAGE 4–12% bis-Tris gels (Invitrogen) with the aims to check the release of fluorine-18, transchelation of [^18F]AlF to serum proteins, and cleavage of labeled protein by peptidases. […] After incubation, the samples were treated with NuPAGE® LDS Sample Buffer according to the manufacturer’s instructions and finally 0.05 nmol of sample loaded on the gel. Na^18F-sodium fluoride was loaded in a separate lane as a low molecular weight internal reference.

[2] = Biodistribution and in vivo binding specificity in NMRI mice; conditions: mouse, iv, total radioactivity, male NMRI mice, 45 pmol i.v., 1 h p.i.
Description: (§1) All animal studies were planned and performed in accordance with the national legislation on the protection of laboratory animals and the Ethic Committee for Animal Research of the Uppsala University approved the study plans. Randomly divided groups of 4 mice per data point were used in all experiments. […] BALB/c nu/nu male mice with PC-3 xenografts (weight 20±1 g at the time of the experiment) were used for tumor targeting and imaging studies. The tumors were grafted by subcutaneous injection of PC-3 cells (10^7 cells/mouse) into the right hind legs 3 weeks before the experiment. The average tumor size was 0.42±0.05 g at the time of the experiment.
(§2) The mice were euthanized 1 h post-injection (p.i.) by intraperitoneal administration of Ketalar-Rompun solution (10 mg/mL Ketalar and 1 mg/mL Rompun; 20 µL of solution per gram of body weight). Blood samples were collected by cardiac puncture. The organs of interest were collected, weighed and their radioactivity was measured. The organ uptake values were expressed as a percentage of the injected dose per gram of tissue (%ID/g) except for the gastrointestinal tract (GI) and carcass, which were expressed as %ID per whole sample.

murine GRPRs = target: T1, murine GRPRs (Mus musculus, UniProt P21729); assay: as above; conditions: iv, total radioactivity, male NMRI mice, 45 pmol i.v., 1 h p.i.
T1 construct: from tissue; host or cells: organs of male NMRI mice, in vivo (pancreas, stomach, small intestine and others)
Description: as §1, §2

[3] = Biodistribution and in vivo binding specificity in PC-3 tumor-bearing BALB/c nu/nu mice; conditions: mouse, iv, total radioactivity, male BALB/c nu/nu mice with PC-3 xenografts, 45 pmol i.v.; for tissue uptake at 1 h / tissue uptake at 6 h / tissue uptake at 3 h: male, BALB/c nu/nu; for tissue uptake at 1 h / tissue uptake dose at 1 h: 1 h p.i.; for tissue uptake at 6 h / tissue uptake dose at 6 h: 6 h p.i.; for tissue uptake at 3 h / tissue uptake dose at 3 h: 3 h p.i.
Description: as §1
(§3) The mice were sacrificed at 1, 3 and 6 h p.i. to determine the uptake in tumors and other receptor-positive organs. A group of animals was co-injected with an excess of non-labeled peptide (20 nmol) and sacrificed 1 h p.i. The blood and other organs of interest were collected and treated as described above.

PC-3 xenografts = assay: as above
Description: as §1, §3

[4] = carcass (whole sample), read-out: Carcass uptake
[5] = carcass (whole sample), blocked (co-injected 20 nmol non-labeled peptide), read-out: Carcass uptake
[6] = gastrointestinal tract (whole sample), read-out: GI tract uptake
[7] = gastrointestinal tract (whole sample), blocked (co-injected 20 nmol non-labeled peptide), read-out: GI tract uptake
[8] = blood, blocked (co-injected 20 nmol non-labeled peptide), read-out: Blood uptake
[9] = bone, blocked (co-injected 20 nmol non-labeled peptide), read-out: Bone uptake
[10] = kidney, blocked (co-injected 20 nmol non-labeled peptide), read-out: Kidney uptake
[11] = liver, blocked (co-injected 20 nmol non-labeled peptide), read-out: Liver uptake
[12] = lung, blocked (co-injected 20 nmol non-labeled peptide), read-out: Lung uptake
[13] = muscle, blocked (co-injected 20 nmol non-labeled peptide), read-out: Muscle uptake
[14] = pancreas, blocked (co-injected 20 nmol non-labeled peptide), read-out: Pancreas uptake
[15] = small intestine, blocked (co-injected 20 nmol non-labeled peptide), read-out: Small intestine uptake
[16] = spleen, blocked (co-injected 20 nmol non-labeled peptide), read-out: Spleen uptake
[17] = stomach, blocked (co-injected 20 nmol non-labeled peptide), read-out: Stomach uptake
[18] = blood, 45 pmol, read-out: Blood uptake
[19] = bone, 45 pmol, read-out: Bone uptake
[20] = kidney, 45 pmol, read-out: Kidney uptake
[21] = liver, 45 pmol, read-out: Liver uptake
[22] = lung, 45 pmol, read-out: Lung uptake
[23] = muscle, 45 pmol, read-out: Muscle uptake
[24] = pancreas, 45 pmol, read-out: Pancreas uptake
[25] = small intestine, 45 pmol, read-out: Small intestine uptake
[26] = spleen, 45 pmol, read-out: Spleen uptake
[27] = stomach, 45 pmol, read-out: Stomach uptake
[28] = tumor (PC-3 xenograft), 45 pmol, read-out: Tumor uptake
[29] = male BALB/c nu/nu mice with PC-3 xenografts, 45 pmol i.v., 3 h p.i.

T1 sequence (P21729 whole entry): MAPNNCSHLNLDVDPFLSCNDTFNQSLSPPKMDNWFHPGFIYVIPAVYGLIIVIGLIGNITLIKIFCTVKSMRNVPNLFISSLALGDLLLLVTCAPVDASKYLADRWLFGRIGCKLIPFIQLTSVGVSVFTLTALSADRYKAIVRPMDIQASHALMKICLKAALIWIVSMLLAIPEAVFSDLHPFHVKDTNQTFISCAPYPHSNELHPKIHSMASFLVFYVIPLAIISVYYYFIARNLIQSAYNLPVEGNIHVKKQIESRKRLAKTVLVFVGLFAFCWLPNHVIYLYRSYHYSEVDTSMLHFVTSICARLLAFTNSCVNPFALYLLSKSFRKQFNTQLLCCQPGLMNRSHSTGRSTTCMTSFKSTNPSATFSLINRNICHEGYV

- tissue uptake dose at 1 h [2, 4]: 5 ± 2 %ID
- tissue uptake dose at 1 h [2, 5]: 5 ± 1 %ID
- tissue uptake dose at 1 h [2, 6]: 11 ± 3 %ID
- tissue uptake dose at 1 h [2, 7]: 5 ± 1 %ID
- tissue uptake at 1 h (murine GRPRs; blood, read-out: Blood uptake): 0.3 ± 0.1 %ID/g
- tissue uptake at 1 h (murine GRPRs; [8]): 0.3 ± 0.1 %ID/g
- tissue uptake at 1 h (murine GRPRs; bone, read-out: Bone uptake): 0.3 ± 0.2 %ID/g
- tissue uptake at 1 h (murine GRPRs; [9]): 0.2 ± 0.1 %ID/g
- tissue uptake at 1 h (murine GRPRs; kidney, read-out: Kidney uptake): 2.8 ± 0.5 %ID/g
- tissue uptake at 1 h (murine GRPRs; [10]): 3.4 ± 0.8 %ID/g
- tissue uptake at 1 h (murine GRPRs; liver, read-out: Liver uptake): 1.2 ± 0.3 %ID/g
- tissue uptake at 1 h (murine GRPRs; [11]): 1.4 ± 0.4 %ID/g
- tissue uptake at 1 h (murine GRPRs; lung, read-out: Lung uptake): 0.3 ± 0.2 %ID/g
- tissue uptake at 1 h (murine GRPRs; [12]): 0.3 ± 0.1 %ID/g
- tissue uptake at 1 h (murine GRPRs; muscle, read-out: Muscle uptake): 0.09 ± 0.03 %ID/g
- tissue uptake at 1 h (murine GRPRs; [13]): 0.08 ± 0.03 %ID/g
- tissue uptake at 1 h (murine GRPRs; pancreas, read-out: Pancreas uptake): 14 ± 6 %ID/g
- tissue uptake at 1 h (murine GRPRs; [14]): 0.4 ± 0.1 %ID/g
- tissue uptake at 1 h (murine GRPRs; small intestine, read-out: Small intestine uptake): 4 ± 2 %ID/g
- tissue uptake at 1 h (murine GRPRs; [15]): 1.7 ± 0.7 %ID/g
- tissue uptake at 1 h (murine GRPRs; spleen, read-out: Spleen uptake): 0.6 ± 0.3 %ID/g
- tissue uptake at 1 h (murine GRPRs; [16]): 0.16 ± 0.08 %ID/g
- tissue uptake at 1 h (murine GRPRs; stomach, read-out: Stomach uptake): 2 ± 1 %ID/g
- tissue uptake at 1 h (murine GRPRs; [17]): 0.3 ± 0.1 %ID/g
- tissue uptake at 1 h [3, 18]: 0.48 ± 0.08 %ID/g
- tissue uptake at 6 h [3, 18]: 0.023 ± 0.001 %ID/g
- tissue uptake at 1 h [3, 8]: 0.4 ± 0.2 %ID/g
- tissue uptake at 1 h [3, 19]: 0.3 ± 0.08 %ID/g
- tissue uptake at 3 h [3, 19]: 0.17 ± 0.08 %ID/g
- tissue uptake at 6 h [3, 19]: 0.22 ± 0.08 %ID/g
- tissue uptake at 1 h [3, 9]: 0.2 ± 0.2 %ID/g
- tissue uptake at 1 h [3, 20]: 3.6 ± 0.3 %ID/g
- tissue uptake at 3 h [3, 20]: 1.74 ± 0.25 %ID/g
- tissue uptake at 6 h [3, 20]: 0.27 ± 0.06 %ID/g
- tissue uptake at 1 h [3, 10]: 3.9 ± 0.8 %ID/g
- tissue uptake at 1 h [3, 21]: 1.9 ± 0.4 %ID/g
- tissue uptake at 3 h [3, 21]: 0.45 ± 0.21 %ID/g
- tissue uptake at 6 h [3, 21]: 0.1 ± 0.02 %ID/g
- tissue uptake at 1 h [3, 11]: 1.6 ± 0.3 %ID/g
- tissue uptake at 1 h [3, 22]: 0.36 ± 0.06 %ID/g
- tissue uptake at 3 h [3, 22]: 0.2 ± 0.2 %ID/g
- tissue uptake at 6 h [3, 22]: 0.11 ± 0.08 %ID/g
- tissue uptake at 1 h [3, 12]: 0.4 ± 0.3 %ID/g
- tissue uptake at 1 h [3, 23]: 0.1 ± 0.03 %ID/g
- tissue uptake at 3 h [3, 23]: 0.03 ± 0.01 %ID/g
- tissue uptake at 6 h [3, 23]: 0.02 ± 0.01 %ID/g
- tissue uptake at 1 h [3, 13]: 0.09 ± 0.04 %ID/g
- tissue uptake at 1 h [3, 24]: 13 ± 2 %ID/g
- tissue uptake at 3 h [3, 24]: 2.7 ± 0.7 %ID/g
- tissue uptake at 1 h [3, 14]: 0.3 ± 0.2 %ID/g
- tissue uptake at 1 h [3, 25]: 4 ± 2 %ID/g
- tissue uptake at 3 h [3, 25]: 0.88 ± 0.39 %ID/g
- tissue uptake at 6 h [3, 25]: 0.13 ± 0.06 %ID/g
- tissue uptake at 1 h [3, 15]: 2.6 ± 0.9 %ID/g
- tissue uptake at 1 h [3, 26]: 1 ± 0.2 %ID/g
- tissue uptake at 3 h [3, 26]: 0.1 ± 0.03 %ID/g
- tissue uptake at 6 h [3, 26]: 0.15 ± 0.08 %ID/g
- tissue uptake at 1 h [3, 16]: 0.7 ± 0.2 %ID/g
- tissue uptake at 1 h [3, 27]: 2.4 ± 0.4 %ID/g
- tissue uptake at 3 h [3, 27]: 1.37 ± 0.35 %ID/g
- tissue uptake at 6 h [3, 27]: 0.33 ± 0.08 %ID/g
- tissue uptake at 1 h [3, 17]: 0.4 ± 0.1 %ID/g
- tissue uptake at 1 h [3, 28]: 6.3 ± 0.9 %ID/g
- tissue uptake at 3 h [3, 28]: 5.5 ± 0.7 %ID/g
- tissue uptake at 6 h [3, 28]: 2.3 ± 0.7 %ID/g
- tissue uptake at 1 h ([3]; tumor (PC-3 xenograft), blocked (co-injected 20 nmol non-labeled peptide), read-out: Tumor uptake): 0.8 ± 0.2 %ID/g
- tissue uptake dose at 1 h [3, 4]: 6 ± 1 %ID
- tissue uptake dose at 3 h [3, 4]: 3.8 ± 0.3 %ID
- tissue uptake dose at 6 h [3, 4]: 0.8 ± 0.2 %ID
- tissue uptake dose at 1 h [3, 5]: 4 ± 1 %ID
- tissue uptake dose at 1 h [3, 6]: 6.1 ± 0.8 %ID
- tissue uptake dose at 3 h [3, 6]: 5.2 ± 0.4 %ID
- tissue uptake dose at 6 h [3, 6]: 3 ± 0.1 %ID
- tissue uptake dose at 1 h [3, 7]: 4.8 ± 0.3 %ID
- decrease of tumor uptake by co-injection of non-labeled peptide (PC-3 xenografts; PC-3 xenografted mice, 1 h p.i., 20 nmol non-labeled peptide): more than 8 fold
- Stomach uptake (PC-3 xenografts; [29]): 1.4±0.4 %ID/g
- Tumor uptake (PC-3 xenografts; [29]): 5.53±0.75 %ID/g
SMILES: CC(C)C[C@H](NC(=O)C[C@H](O)[C@H](CC(C)C)NC(=O)[C@H](Cc1c[nH]cn1)NC(=O)CNC(=O)[C@@H](NC(=O)[C@H](C)NC(=O)[C@H](Cc1c[nH]c2ccccc12)NC(=O)[C@H](CCC(N)=O)NC(=O)[C@@H](Cc1ccccc1)NC(=O)COCCOCCNC(=O)CN1CCN(CC(=O)O)CCN(CC(=O)O)CC1)C(C)C)C(N)=O [[^18F]AlF-NOTA-P2-RM26]
- stability in murine serum [1]: stable; also recorded: single radioactivity peak
